≈ marks a conversion by molar mass, not a printed value.
Target: T1, collagenase
T1 construct: gene colG; docking used another collagenase (printed PDB 465C / 456C)
Test: FALGPA hydrolysis, ninhydrin, absorbance at […] nm
Format: biochemical
Conditions: FALGPA substrate, 50 mM tricine, 37 °C, 20 min preincubation; metal chelator

Question: With O=C(O)CN(CCN(CC(=O)O)CC(=O)O)CC(=O)O [EDTA] as the compound, how does the “IC50 ± SD (% inhibition ± SD) / Anti-collagenase” value read?
Answer: 315.12 ± 2.21 µg/mL (≈ 1080 µM)
